Laboratory results published in PubChem BioAssay (NCI).
Values joined by “and” are separate entries in the source; they are usually repeats but may differ in a detail not shown here. Equal values may be shown once.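 Five compound concentrations were applied to cells in 96-well plates for 48 hours; endpoints were derived by simple linear interpolation of the resulting dose-response curve. Here, GI50 denotes the concentration required for 50% inhibition of growth. TGI: concentration producing complete growth inhibition.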 Where a SMILES comes first, the peptide text is derived from it. [ ]: non-standard residue; d: D form. The star is where a group is joined. Phe(4-NO2) = N[CH](Cc1ccc([N+](=O)[O-])cc1)C(=O)O; Boc = CC(C)(C)OC(=O)*; OtBu = CC(C)(C)O*

Assays:
Assay in all cases: inhibition of tumour cell growth, NCI panel, 48 h
NCI-H460 lung = test system: NCI-H460 lung
UACC-62 melanoma = test system: UACC-62 melanoma
MCF7 breast = test system: MCF7 breast
MDA-MB-435 = test system: MDA-MB-435
786-0 renal = test system: 786-0 renal
U251 CNS = test system: U251 CNS
A498 renal = test system: A498 renal
SF-268 CNS = test system: SF-268 CNS
HOP-62 NSCLC = test system: HOP-62 NSCLC
HS 578T breast = test system: HS 578T breast

SMILES	TGI (NCI-H460 lung)	TGI (UACC-62 melanoma)	TGI (MCF7 breast)	TGI (MDA-MB-435)	TGI (786-0 renal)	TGI (U251 CNS)	TGI (A498 renal)	TGI (SF-268 CNS)	TGI (HOP-62 NSCLC)	TGI (HS 578T breast)	GI50 (NCI-H460 lung)	GI50 (UACC-62 melanoma)	GI50 (U251 CNS)	GI50 (A498 renal)	GI50 (HOP-62 NSCLC)	GI50 (MDA-MB-435)	GI50 (SF-268 CNS)	GI50 (HS 578T breast)
COC(=O)C(Cc1ccc([N+](=O)[O-])cc1)NC(=O)C(CC(=O)OC(C)(C)C)NC(=O)OC(C)(C)C (stereo not drawn) (Boc-Asp(OtBu)-[Phe(4-NO2)]-OMe; configuration not given here)	> 100 µM	> 100 µM	> 100 µM	> 100 µM	> 100 µM	> 100 µM	> 100 µM	> 100 µM	> 100 µM	40.6 µM	–	–	–	–	–	–	–	–
Cn1c(=O)c2[nH]c(N/N=C3/SCC(=O)N3Cc3ccccc3)nc2n(C)c1=O	> 100 µM	> 100 µM	45.8 µM	50.1 µM	88.4 µM	> 100 µM	> 100 µM	> 100 µM	> 100 µM	> 100 µM	–	–	–	–	–	–	–	–
O=C1O/C(=C\c2ccc(O)cc2)C(c2ccc(O)c(Cl)c2)=C1Br	38.7 µM	28.9 µM	37.1 µM	53.2 µM	31.6 µM	34.5 µM	34.6 µM	45.2 µM	35.3 µM	59.1 µM	–	–	–	–	–	–	–	–
O=C(CCCN1CCc2[nH]c3cc(F)ccc3c2C1)c1ccc(F)cc1	23.9 µM	25.5 µM	18.3 µM	25.6 µM	26.6 µM	29.8 µM	24.4 µM	26.7 µM	29.8 µM	30 µM	–	–	–	–	–	–	–	–
BrCC[P+](c1ccccc1)(c1ccccc1)c1ccccc1	73.3 µM	21.9 µM	30.5 µM	10.8 µM	10.4 µM	13.2 µM	41.3 µM	8.25 µM	20.2 µM	50.5 µM	–	–	–	–	–	–	–	–
CN(C)CCNc1nc2ccccc2c2c1C(=O)c1ccccc1-2	0.415 µM	0.437 µM	1.87 µM	1.12 µM	3.66 µM	2.83 µM	1.24 µM	2.4 µM	3.72 µM	24.3 µM	–	–	–	–	–	–	–	–
C=CCOn1c(C=C)nc2c(C)cccc21	5.04 µM	6.93 µM	12.5 µM	3.4 µM	5.83 µM	4.84 µM	17.9 µM	26.5 µM	22 µM	> 100 µM	–	–	–	–	–	–	–	–
COC1=CC2(C=CC1=O)CCN=c1c(O)c3c(c(O)c12)=NC=N3 (stereo not drawn)	> 100 µM	> 100 µM	> 100 µM	> 100 µM	> 100 µM	> 100 µM	> 100 µM	> 100 µM	> 100 µM	> 100 µM	–	–	–	–	–	–	–	–
C=C(CCC(C(=O)O)C1CCC2(C)C3=C(CCC12C)C1(C)CCC(O)C(C)(C)C1CC3)C(C)C (stereo not drawn)	37.5 µM	> 100 µM	> 100 µM	> 100 µM	> 100 µM	72.8 µM	75.2 µM	> 100 µM	> 100 µM	> 100 µM	–	–	–	–	–	–	–	–
CSc1nc(Br)nc2c1ncn2C1CC(Oc2ccc(C)cc2)C(COc2ccc(C)cc2)O1 (stereo not drawn)	> 100 µM	> 100 µM	> 100 µM	> 100 µM	> 100 µM	> 100 µM	> 100 µM	> 100 µM	> 100 µM	65.5 µM	–	–	–	–	–	–	–	–
Cc1nn(C(=O)c2ccccc2O)c2c1C(c1ccc(O)cc1)SC(N)=N2 (stereo not drawn)	> 10 µM	> 10 µM	> 10 µM	> 10 µM	> 10 µM	> 10 µM	> 10 µM	> 10 µM	> 10 µM	> 10 µM	–	–	–	–	–	–	–	–
COc1ccc(S(=O)(=O)Nc2ccc(-c3csc(N4C(=O)/C(=C/C=C\c5ccccc5)N=C4c4ccccc4)n3)cc2)cc1Cl	> 100 µM	49.9 µM	> 100 µM	62 µM	> 100 µM	76.4 µM	73.1 µM	56.3 µM	> 100 µM	85.5 µM	–	–	–	–	–	–	–	–
Cc1ccc(C2=Nn3c(nc4sc(-c5ccccc5)cc4c3=O)SC2)cc1	> 100 µM	> 100 µM	> 100 µM	> 100 µM	> 100 µM	> 100 µM	> 100 µM	> 100 µM	> 100 µM	> 100 µM	–	–	–	–	–	–	–	–
CSC1(SC)CCCCCCCCCCC1	> 100 µM	> 100 µM	38.1 µM	> 100 µM	> 100 µM	> 100 µM	> 100 µM	> 100 µM	> 100 µM	> 100 µM	–	–	–	–	–	–	–	–
N#Cc1nnc2c3c(-c4ccc(Cl)cc4)c(C#N)c(=O)[nH]c3nn2c1N	52.6 µM	4.44 µM	16.3 µM	26.8 µM	18.2 µM	10.7 µM	10.9 µM	12.6 µM	21.8 µM	10.8 µM	–	–	–	–	–	–	–	–
CSc1s[s+]c(SC)c1-c1ccccc1	> 100 µM	28.3 µM	33.7 µM	36 µM	28.1 µM	41.1 µM	47.3 µM	43 µM	29.4 µM	86.9 µM	–	–	–	–	–	–	–	–
CN(C)CCn1c(=O)c2ccc(NCCNCCO)c3c(=O)c4cc(O)ccc4n(c1=O)c23	4.51 µM	4.23 µM	6.23 µM	6.53 µM	13.2 µM	8.27 µM	25.7 µM	14.9 µM	4.16 µM	11.4 µM	–	–	–	–	–	–	–	–
C=CCN1C(=O)/C(=C/c2ccc(Cl)cc2)N=C1SC1OC(COC(C)=O)C(OC(C)=O)C(OC(C)=O)C1OC(C)=O (stereo not drawn)	36.2 µM and > 100 µM	35.7 µM and > 100 µM	> 100 µM	> 66.3 µM and 64.8 µM	12.6 µM	19.7 µM and > 100 µM	> 100 µM and 73.7 µM	5.46 µM	20.6 µM and 62.6 µM	9.79 µM	8.11 µM and 31.5 µM	10.4 µM and 21.5 µM	5.23 µM and 30.1 µM	80.5 µM and 31.1 µM	5.66 µM and 21.9 µM	–	–	–

SMILES	TGI (NCI-H460 lung)	TGI (UACC-62 melanoma)	TGI (MCF7 breast)	TGI (MDA-MB-435)	TGI (786-0 renal)	TGI (U251 CNS)	TGI (A498 renal)	TGI (SF-268 CNS)	TGI (HOP-62 NSCLC)	TGI (HS 578T breast)	GI50 (NCI-H460 lung)	GI50 (UACC-62 melanoma)	GI50 (U251 CNS)	GI50 (A498 renal)	GI50 (HOP-62 NSCLC)	GI50 (MDA-MB-435)	GI50 (SF-268 CNS)	GI50 (HS 578T breast)
COc1cc(O)c2c(c1)C(O)C(O)CC1OC1C(=O)/C=C/CC(C)OC2=O (stereo not drawn)	25.6 µM	3.2 µM	16.3 µM	8.31 µM	13.8 µM	25 µM	27.3 µM	46.3 µM	44.3 µM	59.5 µM	–	–	–	–	–	–	–	–
COc1ccc([C@@]23CCC(=O)C[C@@H]2N(C)CC3)cc1OC	> 100 µM	> 100 µM	> 100 µM	> 100 µM	> 100 µM	> 100 µM	> 100 µM	> 100 µM	> 100 µM	> 100 µM	–	–	–	–	–	–	–	–
O=C(O)c1ccccc1-c1ccccc1C(=O)c1ccccc1	> 100 µM	> 100 µM	> 100 µM	> 100 µM	> 100 µM	> 100 µM	> 100 µM	> 100 µM	> 100 µM	> 100 µM	–	–	–	–	–	–	–	–
COc1cccc(N2N=C3c4ccccc4-n4c(nc5ccccc54)C3C2N)c1 (stereo not drawn)	> 100 µM	> 100 µM	> 100 µM	> 100 µM	> 100 µM	> 100 µM	> 100 µM	> 100 µM	> 100 µM	> 100 µM	–	–	–	–	–	–	–	–
O=C(O)CNC(=O)c1cccc2c(=O)c3ccccc3[nH]c12	> 100 µM	> 100 µM	> 100 µM	> 100 µM	> 100 µM	> 100 µM	> 100 µM	> 100 µM	> 100 µM	> 100 µM	–	–	–	–	–	–	–	–
COc1ccccc1OC/C(N=Cc1ccncc1)=N/NC(=O)c1ccncc1	> 100 µM	> 100 µM	> 100 µM	> 100 µM	> 100 µM	> 100 µM	> 100 µM	> 100 µM	> 100 µM	> 100 µM	–	–	–	–	–	–	–	–
CCCCCCCC(CC(=O)O)OC(=O)CC(CCCCCCC)OC1OC(C)C(O)C(O)C1OC1OC(C)C(O)C(O)C1O (stereo not drawn)	> 100 µM	> 100 µM	> 100 µM	> 100 µM	> 100 µM	> 100 µM	> 100 µM	> 100 µM	> 100 µM	> 100 µM	–	–	–	–	–	–	–	–
CC(C)[Si]1(C(C)C)OCC2OC(n3cnc4c(N)ncnc43)C(N)C2O[Si](C(C)C)(C(C)C)O1 (stereo not drawn)	27.5 µM	27.4 µM	8.56 µM	30.7 µM	28.3 µM	35.8 µM	45.5 µM	41.4 µM	> 49.5 µM	44.5 µM	–	–	–	–	–	–	–	–
O=C(O)c1ccc(Nc2cnc3ccc(C(F)(F)F)cc3n2)cc1	87.9 µM	29.2 µM	> 100 µM	72.3 µM	> 100 µM	59.2 µM	42.9 µM	> 100 µM	38.9 µM	40 µM	–	–	–	–	–	–	–	–
O=C(Cc1nc2ccc([N+](=O)[O-])cc2[nH]c1=O)C(=O)Nc1cc(Cl)c(Cl)cc1Cl	> 100 µM	> 100 µM	> 100 µM	> 100 µM	> 100 µM	> 100 µM	> 100 µM	> 100 µM	> 100 µM	> 100 µM	–	–	–	–	–	–	–	–
COc1cc2c(cc1OC)C1Cc3ccccc3CN1CCC2 (stereo not drawn)	> 100 µM	> 100 µM	> 100 µM	> 100 µM	> 100 µM	> 100 µM	> 100 µM	> 100 µM	> 100 µM	> 100 µM	–	–	–	–	–	–	–	–
CC(=O)Oc1ccc2c(c1)c1c(OC(C)=O)c3ccccc3c(OC(C)=O)c1n2Cc1cccc(C)c1	> 100 µM	> 100 µM	> 100 µM	> 100 µM	> 100 µM	> 100 µM	70.6 µM	> 100 µM	67.3 µM	78.3 µM	–	–	–	–	–	–	–	–
CCOP(=O)(OCC)C(F)(F)CC1CCCCC1	> 10 µM	> 10 µM	> 10 µM	> 10 µM	> 10 µM	> 10 µM	> 10 µM	> 10 µM	> 10 µM	> 10 µM	–	–	–	–	–	–	–	–
CN1C/C(=C\c2ccccc2[N+](=O)[O-])C(=O)/C(=C/c2ccccc2[N+](=O)[O-])C1	4.56 µM and 8.89 µM	2.13 µM and 3.79 µM	1.94 µM and 3.04 µM	3.1 µM and 0.706 µM	1.01 µM and 0.467 µM	3.83 µM and 3.86 µM	4.45 µM and 4.72 µM	7.23 µM and 2.86 µM	7.8 µM and 8.77 µM	24 µM and 3.42 µM	–	–	–	–	–	0.86 µM and 0.254 µM	1.78 µM and 0.737 µM	1.97 µM and 0.759 µM
c1csc(-c2ccc(-c3ccc(-c4cccs4)s3)s2)c1	> 100 µM	> 100 µM	> 100 µM	> 100 µM	> 100 µM	> 100 µM	> 100 µM	> 100 µM	> 100 µM	> 100 µM	–	–	–	–	–	–	–	–
CCOC(=O)Cc1nc2c(=O)[nH]cnc2n1C1OC(COC(C)=O)C(OC(C)=O)C1OC(C)=O (stereo not drawn)	> 100 µM	> 100 µM	> 100 µM	> 100 µM	> 100 µM	> 100 µM	> 100 µM	> 100 µM	> 100 µM	> 100 µM	–	–	–	–	–	–	–	–
COC(=O)CNC(=O)/C=C/[C@H](O[Si](C)(C)C(C)(C)C)[C@H](/C=C/C(=O)NCC(=O)OC)O[Si](C)(C)C(C)(C)C	> 25 µM	> 25 µM	> 25 µM	> 25 µM	> 25 µM	> 25 µM	> 25 µM	> 25 µM	> 25 µM	> 25 µM	–	–	–	–	–	–	–	–
O=C(NCCCCl)c1c(O)c2ccccc2[nH]c1=O	> 100 µM	> 100 µM	> 100 µM	> 100 µM	> 100 µM	> 100 µM	> 100 µM	> 100 µM	> 100 µM	> 100 µM	–	–	–	–	–	–	–	–
